{
  "source": "ChEMBL document CHEMBL5543174",
  "about": "“A Nonbactericidal Anionic Antimicrobial Peptide Provides Prophylactic and Therapeutic Efficacies against Bacterial Infections in Mice by Immunomodulatory-Antithrombotic Duality” (J Med Chem, 2024)",
  "key": {"[1]": {"test_system": "Escherichia coli", "test": "Antibacterial activity against Carbapenem-resistant Escherichia coli infected in C57BL/6 mouse with cyclophosphamide-induced neutrophil depletion model assessed as decrease in bacterial burden in peritoneal cavity at 10 mg/kg,ip administrated 5 hrs after bacterial infection measured after 24 hrs", "assay_type": "functional, organism-based", "settings": "time 19.0 hrs"}, "[2]": {"test_system": "Escherichia coli", "test": "Antibacterial activity against Escherichia coli ATCC 25922 infected in C57BL/6 mouse assessed as increase in survival rate at 10 mg/kg,ip pre-administrated 5 hrs before bacterial infection measured after 7 days", "assay_type": "functional, organism-based", "settings": "time 7.0 day"}, "[3]": {"test_system": "Staphylococcus aureus", "test": "Antibacterial activity against Methicillin-resistant Staphylococcus aureus infected in C57BL/6 mouse assessed as reduction in IL-1beta level in serum at 10 mg/kg,ip administrated 5 hrs after bacterial infection measured after 24 hrs by ELISA", "assay_type": "functional, organism-based", "settings": "time 19.0 hrs"}, "[4]": {"test_system": "Mus musculus", "test": "Antithrombotic activity in BALB/c mouse dorsal skin defect model assessed as increase in skin bleeding time at 10 mg/kg,SC administration", "assay_type": "functional, organism-based"}, "[5]": {"test_system": "Mus musculus", "test": "Immunomodulatory activity in cyclophosphamide immunosuppressed C57BL/6 mouse with neutrophil depletion model assessed as change in B-lymphocytes in peritoneal lavage at 10 mg/kg,ip administration measured after 5 to 24 hrs by flow cytometry", "assay_type": "functional, organism-based", "settings": "time 5-24 hrs"}, "[6]": {"test_system": "Peritoneal macrophage cell", "test": "Induction of chemotaxis in mouse Peritoneal macrophage assessed as upregulation of CXCL2 production at 100 ug/ml preincubated with KN-62 followed by compound addition by ELISA", "assay_type": "functional, cell-based", "settings": "dose 100.0 µg/ml"}, "[7]": {"test_system": "Mus musculus", "test": "Immunomodulatory activity in cyclophosphamide immunosuppressed C57BL/6 mouse with neutrophil depletion model assessed as increase in number of neutrophil in peritoneal lavage at 10 mg/kg,ip administration measured after 5 hrs by flow cytometry", "assay_type": "functional, organism-based"}, "[8]": {"test_system": "Staphylococcus epidermidis", "test": "Antimicrobial activity against Staphylococcus epidermidis ATCC 12228 assessed as inhibition of microbial growth at <= 200 ug/ml incubated for 18 hrs by micro-broth dilution method", "assay_type": "functional, organism-based", "settings": "dose <= 200.0 µg/ml"}, "[9]": {"test_system": "Candida albicans", "test": "Antimicrobial activity against Candida albicans ATCC 2002 assessed as inhibition of microbial growth at <= 200 ug/ml incubated for 18 hrs by micro-broth dilution method", "assay_type": "functional, organism-based", "settings": "dose <= 200.0 µg/ml"}, "[10]": {"test_system": "Staphylococcus aureus", "test": "Antimicrobial activity against Staphylococcus aureus ATCC 25923 assessed as inhibition of microbial growth at <= 200 ug/ml incubated for 18 hrs by micro-broth dilution method", "assay_type": "functional, organism-based", "settings": "dose <= 200.0 µg/ml"}, "[11]": {"test_system": "Staphylococcus aureus", "test": "Antibacterial activity against Staphylococcus aureus ATCC 25923 infected in C57BL/6 mouse assessed as reduction in IL-6 level in serum at 10 mg/kg,ip administrated 5 hrs after bacterial infection measured after 24 hrs by ELISA", "assay_type": "functional, organism-based", "settings": "time 19.0 hrs"}, "[12]": {"test_system": "Bacillus subtilis", "test": "Antimicrobial activity against Bacillus subtilis ATCC6633 assessed as inhibition of microbial growth at <= 200 ug/ml incubated for 18 hrs by micro-broth dilution method", "assay_type": "functional, organism-based", "settings": "dose <= 200.0 µg/ml"}, "[13]": {"test_system": "Peritoneal macrophage", "test": "Induction of chemotaxis in mouse Peritoneal macrophage assessed as upregulation of MCP-1 gene expression incubated for 6 hrs by qPCR analysis", "assay_type": "functional, cell-based"}, "[14]": {"test_system": "Staphylococcus aureus", "test": "Antimicrobial activity against Staphylococcus aureus ATCC 25923 assessed as reduction in microbial colony forming unit at 200 ug/ml incubated for 1 to 4 hrs by time-kill kinetics based analysis", "assay_type": "functional, organism-based", "settings": "dose 200.0 µg/ml, time 1-4 hrs"}, "[15]": {"test_system": "Peritoneal macrophage", "test": "Immunoregulatory activity in mouse Peritoneal macrophage assessed as change in total ERK expression at 25 to 100 ug/ml incubated for 1 hr by Western blotting analysis", "assay_type": "functional, cell-based", "settings": "dose 25-100 µg/ml"}, "[16]": {"test_system": "Escherichia coli", "test": "Antibacterial activity against Escherichia coli ATCC 25922 infected in C57BL/6 mouse assessed as reduction in IL-1beta level in peritoneal fluid at 10 mg/kg,ip administrated 5 hrs after bacterial infection measured after 24 hrs by ELISA", "assay_type": "functional, organism-based", "settings": "time 19.0 hrs"}, "[17]": {"test_system": "Staphylococcus aureus", "test": "Antimicrobial activity against Methicillin-resistant Staphylococcus aureus assessed as reduction in microbial colony forming unit at 200 ug/ml incubated for 1 to 4 hrs by time-kill kinetics based analysis", "assay_type": "functional, organism-based", "settings": "dose 200.0 µg/ml, time 1-4 hrs"}, "[18]": {"test_system": "Escherichia coli", "test": "Antibacterial activity against Carbapenem-resistant Escherichia coli infected in C57BL/6 mouse assessed as reduction in IL-6 level in peritoneal fluid at 10 mg/kg,ip administrated 5 hrs after bacterial infection measured after 24 hrs by ELISA", "assay_type": "functional, organism-based", "settings": "time 19.0 hrs"}, "[19]": {"test_system": "Escherichia coli", "test": "Antibacterial activity against Escherichia coli ATCC 25922 infected in C57BL/6 mouse assessed as reduction in IL-6 level in peritoneal fluid at 10 mg/kg,ip administrated 5 hrs after bacterial infection measured after 24 hrs by ELISA", "assay_type": "functional, organism-based", "settings": "time 19.0 hrs"}, "[20]": {"test_system": "Peritoneal macrophage cell", "test": "Induction of chemotaxis in mouse Peritoneal macrophage assessed as upregulation of CXCL2 expression incubated for 6 hrs by ELISA", "assay_type": "functional, cell-based"}, "[21]": {"test_system": "Escherichia coli", "test": "Antibacterial activity against Escherichia coli ATCC 25922 infected in C57BL/6 mouse assessed as reduction in TNF-alpha level in serum at 10 mg/kg,ip administrated 5 hrs after bacterial infection measured after 24 hrs by ELISA", "assay_type": "functional, organism-based", "settings": "time 19.0 hrs"}, "[22]": {"test_system": "Escherichia coli", "test": "Antibacterial activity against Escherichia coli ATCC 25922 infected in C57BL/6 mouse assessed as reduction in IL-1beta level in serum at 10 mg/kg,ip pre-administrated 5 hrs before bacterial infection measured after 24 hrs by ELISA", "assay_type": "functional, organism-based", "settings": "time 29.0 hrs"}, "[23]": {"test_system": "Escherichia coli", "test": "Antibacterial activity against Carbapenem-resistant Escherichia coli infected in C57BL/6 mouse assessed as reduction in TNF-alpha level in peritoneal fluid at 10 mg/kg,ip pre-administrated 5 hrs before bacterial infection measured after 24 hrs by ELISA", "assay_type": "functional, organism-based", "settings": "time 29.0 hrs"}, "[24]": {"test_system": "Alcaligenes faecalis", "test": "Antimicrobial activity against Alcaligenes faecalis ATCC 8750 assessed as inhibition of microbial growth at <= 200 ug/ml incubated for 18 hrs by micro-broth dilution method", "assay_type": "functional, organism-based", "settings": "dose <= 200.0 µg/ml"}, "[25]": {"test_system": "Peritoneal macrophage", "test": "Immunoregulatory activity in mouse Peritoneal macrophage assessed as change in total JNK expression at 25 to 100 ug/ml incubated for 1 hr by Western blotting analysis", "assay_type": "functional, cell-based", "settings": "dose 25-100 µg/ml"}, "[26]": {"test_system": "Escherichia coli", "test": "Antibacterial activity against Escherichia coli ATCC 25922 infected in C57BL/6 mouse assessed as reduction in inflammatory injury in lung at 10 mg/kg,ip pre-administrated 5 hrs before bacterial infection measured after 24 hrs by hematoxylin and eosin staining based analysis", "assay_type": "functional, organism-based", "settings": "time 29.0 hrs"}, "[27]": {"test_system": "Mus musculus", "test": "Immunomodulatory activity in clodronate liposome immunosuppressed C57BL/6 mouse with monocyte depletion model assessed as increase in number of monocyte in peritoneal lavage at 10 mg/kg,ip administration measured after 5 hrs by flow cytometry", "assay_type": "functional, organism-based"}, "[28]": {"test_system": "Staphylococcus aureus", "test": "Antibacterial activity against Staphylococcus aureus ATCC 25923 infected in C57BL/6 mouse assessed as reduction in IL-1beta level in serum at 10 mg/kg,ip administrated 5 hrs after bacterial infection measured after 24 hrs by ELISA", "assay_type": "functional, organism-based", "settings": "time 19.0 hrs"}, "[29]": {"test_system": "Staphylococcus aureus", "test": "Antibacterial activity against Methicillin-resistant Staphylococcus aureus infected in C57BL/6 mouse assessed as increase in survival rate at 10 mg/kg,ip administrated 5 hrs after bacterial infection measured after 7 days", "assay_type": "functional, organism-based", "settings": "time 7.0 day"}, "[30]": {"test_system": "Mus musculus", "test": "Anticoagulation activity in mouse assessed as change in plasma TFPI expression at 10 mg/kg,ip measured after 24 hrs by ELISA", "assay_type": "functional, organism-based"}, "[31]": {"test_system": "Neutrophil", "test": "Induction of chemotaxis in mouse bone marrow derived neutrophil assessed as increase in neutrophil migration at 100 ug/ml preincubated with KN62 for 30 mins followed by compound addition measured after 8 hrs by crystal violet staining based indirect transwell assay", "assay_type": "functional, cell-based", "settings": "dose 100.0 µg/ml"}},
  "note": "Active and inactive are the calls of the source. No cut-off for these calls is given here.",
  "data": [
    {"smiles": "CC[C@H](C)[C@H](NC(=O)[C@@H]1CSSC[C@H](NC(=O)[C@H](CCC(=O)O)NC(=O)[C@@H](NC(=O)[C@H](CCCCN)NC(=O)[C@H](Cc2c[nH]cn2)NC(=O)[C@@H](NC(=O)[C@H](CCCCN)NC(=O)[C@H](CCC(=O)O)NC(=O)[C@H](C)NC(=O)[C@H](CCC(=O)O)NC(=O)[C@H](CCC(=O)O)NC(=O)[C@H](CCC(=O)O)NC(=O)[C@H](C)N)[C@@H](C)O)[C@@H](C)O)C(=O)N[C@@H](CC(C)C)C(=O)N[C@@H](CCC(=O)O)C(=O)N1)C(=O)N[C@@H](Cc1ccccc1)C(=O)N[C@H](C(=O)N[C@@H](CC(C)C)C(=O)N[C@@H](CC(C)C)C(=O)N1CCC[C@H]1C(=O)N1CCC[C@@H]1C(=O)N[C@H](C)C(=O)O)[C@@H](C)O", "values": [
      {"measurement": "Activity", "setting": "[1]", "value": "inactive"},
      {"measurement": "Activity", "setting": "[2]", "value": "Active"},
      {"measurement": "Activity", "setting": "[3]", "value": "Active"},
      {"measurement": "Activity", "setting": "[4]", "value": "inactive"},
      {"measurement": "Activity", "setting": "[5]", "value": "inactive"},
      {"measurement": "Activity", "setting": "[6]", "value": "Active"},
      {"measurement": "Activity", "setting": "[7]", "value": "Active"},
      {"measurement": "Activity", "setting": "[8]", "value": "inactive"},
      {"measurement": "Activity", "setting": "[9]", "value": "inactive"},
      {"measurement": "Activity", "setting": "[10]", "value": "inactive"},
      {"measurement": "Activity", "setting": "[11]", "value": "Active"},
      {"measurement": "Activity", "setting": "[12]", "value": "inactive"},
      {"measurement": "Activity", "setting": "[13]", "value": "Dose-Dependent Effect"},
      {"measurement": "Activity", "setting": "[14]", "value": "inactive"},
      {"measurement": "Activity", "setting": "[15]", "value": "inactive"},
      {"measurement": "Activity", "setting": "[16]", "value": "Active"},
      {"measurement": "Activity", "setting": "[17]", "value": "inactive"},
      {"measurement": "Activity", "setting": "[18]", "value": "Active"},
      {"measurement": "Activity", "setting": "[19]", "value": "Active"},
      {"measurement": "Activity", "setting": "[20]", "value": "Dose-Dependent Effect"},
      {"measurement": "Activity", "setting": "[21]", "value": "Active"},
      {"measurement": "Activity", "setting": "[22]", "value": "Active"},
      {"measurement": "Activity", "setting": "[23]", "value": "Active"},
      {"measurement": "Activity", "setting": "[24]", "value": "inactive"},
      {"measurement": "Activity", "setting": "[25]", "value": "inactive"},
      {"measurement": "Activity", "setting": "[26]", "value": "Active"},
      {"measurement": "Activity", "setting": "[27]", "value": "Active"},
      {"measurement": "Activity", "setting": "[28]", "value": "Active"},
      {"measurement": "Activity", "setting": "[29]", "value": "Active"},
      {"measurement": "Activity", "setting": "[30]", "value": "inactive"},
      {"measurement": "Activity", "setting": "[31]", "value": "Active"}
    ]}
  ]
}
